From patent US20110294766A1, “16 Alpha, 17 Alpha-Acetal Glucocorticosteroidal Derivatives and their Use” (AstraZeneca AB, priority 2008, published 2011)

Molecular target: T1, recombinant human GR (Homo sapiens, UniProt P04150)
T1 construct: purchased Panvera/Invitrogen P2812 (kit P2893)
T1 sequence (P04150 1-777): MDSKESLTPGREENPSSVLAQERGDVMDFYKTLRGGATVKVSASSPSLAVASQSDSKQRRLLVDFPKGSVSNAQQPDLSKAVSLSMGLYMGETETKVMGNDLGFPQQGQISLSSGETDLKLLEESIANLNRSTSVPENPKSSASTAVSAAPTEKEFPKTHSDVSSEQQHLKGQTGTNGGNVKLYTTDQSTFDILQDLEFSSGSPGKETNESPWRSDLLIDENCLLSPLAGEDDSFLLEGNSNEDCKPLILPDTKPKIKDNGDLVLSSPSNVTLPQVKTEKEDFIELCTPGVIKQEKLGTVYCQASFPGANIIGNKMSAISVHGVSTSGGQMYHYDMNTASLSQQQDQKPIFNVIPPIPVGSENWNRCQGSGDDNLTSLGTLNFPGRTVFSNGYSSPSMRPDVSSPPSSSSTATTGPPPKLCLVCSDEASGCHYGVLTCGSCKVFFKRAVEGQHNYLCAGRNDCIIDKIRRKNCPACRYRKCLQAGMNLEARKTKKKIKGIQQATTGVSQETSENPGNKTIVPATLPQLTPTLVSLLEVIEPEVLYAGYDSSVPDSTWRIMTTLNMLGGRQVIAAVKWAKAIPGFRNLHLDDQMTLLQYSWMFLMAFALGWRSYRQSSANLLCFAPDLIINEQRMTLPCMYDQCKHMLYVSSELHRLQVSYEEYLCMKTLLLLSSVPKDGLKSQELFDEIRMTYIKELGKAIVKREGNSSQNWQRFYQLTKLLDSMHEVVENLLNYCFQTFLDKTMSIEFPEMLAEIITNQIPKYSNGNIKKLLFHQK
Assay: Human Glucocorticoid Receptor (GR) Assay (fluorescence polarization, Panvera/Invitrogen kit)
Conditions: GS Red tracer, 2 hours at room temperature, 100% control 10 μM Dexamethasone, read-out: Inhibition of GR binding, IC50
Procedure, shortened: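 Fluorescence polarization competition binding of compounds against Fluoromone GS Red tracer on recombinant human GR, in buffer of potassium phosphate, sodium molybdate, EDTA, DMSO with stabilizing peptide and DTT. Incubated 2 h at room temperature in the dark; read at ex 530/em 590 nm. Controls: DMSO (0%), 10 μM dexamethasone (100%).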

Row | IC50 [nM] | SMILES
1 | 2.7 | Cc1ccc(C2O[C@@H]3C[C@H]4[C@@H]5CCC6=CC(=O)C=C[C@]6(C)[C@H]5[C@@H](O)C[C@]4(C)[C@]3(C(=O)SCC#N)O2)c(C)c1 (stereo partly drawn) [Example 36, S-(Cyanomethyl)(4aR,4bS,5S,6aS,6bS,9aR,10aS,10bS)-8-(2,4-dimethylphenyl)-5-hydroxy-4a,6a-dimethyl-2-oxo-2,4a,4b,5,6,6a,9a,10,10a,10,11,12-dodecahydro-6bH-naphtho[2′,1′:4,5]indeno[1,2-d][1,3]dioxole-6b-carbothioate]
2 | 1.4 | COc1ccc(C2O[C@@H]3C[C@H]4[C@@H]5CCC6=CC(=O)C=C[C@]6(C)[C@H]5[C@@H](O)C[C@]4(C)[C@]3(C(=O)SCC#N)O2)c(F)c1 (stereo partly drawn) [Example 37, S-(Cyanomethyl)(4aR,4bS,5S,6aS,6bS,9aR,10aS,10bS)-8-(2-fluoro-4-methoxyphenyl)-5-hydroxy-4a,6a-dimethyl-2-oxo-2,4a,4b,5,6,6a,9a,10,10a,10b,11,12-dodecahydro-6bH-naphtho[2′,1′:4,5]indeno[1,2-d][1,3]dioxole-6b-carbothioate]
3 | 2.2 | COc1ccc([C@@H]2O[C@@H]3C[C@H]4[C@@H]5CCC6=CC(=O)C=C[C@]6(C)[C@H]5[C@@H](O)C[C@]4(C)[C@]3(C(=O)SC)O2)c(F)c1 [Example 38 (8R), S-Methyl (4aR,4bS,5S,6aS,6bS,8R,9aR,10aS,10bS)-8-(2-fluoro-4-methoxyphenyl)-5-hydroxy-4a,6a-dimethyl-2-oxo-2,4a,4b,5,6,6a,9a,10,10a,10b,11,12-dodecahydro-6bH-naphtho[2′,1′:4,5]indeno[1,2-d][1,3]dioxole-6b-carbothioate]
4 | 2.8 | C[C@]12C=CC(=O)C=C1CC[C@@H]1[C@@H]2[C@@H](O)C[C@@]2(C)[C@H]1C[C@H]1OC(c3ccc(C(F)(F)F)cc3)O[C@]12C(=O)SCC#N (stereo partly drawn) [Example 39, S-(Cyanomethyl)(4aR,4bS,5S,6aS,6bS,9aR,10aS,10bS)-5-hydroxy-4a,6a-dimethyl-2-oxo-8-[4-(trifluoromethyl)phenyl]-2,4a,4b,5,6,6a,9a,10,10a,10,11,12-dodecahydro-6bH-naphtho[2′,1′:4,5]indeno[1,2-d][1,3]dioxole-6b-carbothioate]
5 | 1.7 | C[C@]12C=CC(=O)C=C1CC[C@@H]1[C@@H]2[C@@H](O)C[C@@]2(C)[C@H]1C[C@H]1OC(c3ccc(C(F)(F)F)cc3)O[C@]12C(=O)SCF (stereo partly drawn) [Example 40, S-(Fluoromethyl)(4aR,4bS,5S,6aS,6bS,9aR,10aS,10bS)-5-hydroxy-4a,6a-dimethyl-2-oxo-8-[4-(trifluoromethyl)phenyl]-2,4a,4b,5,6,6a,9a,10,10a,10,11,12-dodecahydro-6bH-naphtho[2′,1′:4,5]indeno[1,2-d][1,3]dioxole-6b-carbothioate]
6 | 2.2 | CSC(=O)[C@@]12OC(c3ccc(C(F)(F)F)cc3)O[C@@H]1C[C@H]1[C@@H]3CCC4=CC(=O)C=C[C@]4(C)[C@H]3[C@@H](O)C[C@@]12C (stereo partly drawn) [Example 41, S-Methyl (4aR,4bS,5S,6aS,6bS,9aR,10aS,10bS)-5-hydroxy-4a,6a-dimethyl-2-oxo-8-[4-(trifluoromethyl)phenyl]-2,4a,4b,5,6,6a,9a,10,10a,10b,11,12-dodecahydro-6bH-naphtho[2′,1′:4,5]indeno[1,2-d][1,3]dioxole-6b-carbothioate]
7 | 1.5 | C[C@]12C=CC(=O)C=C1CC[C@@H]1[C@@H]2[C@@H](O)C[C@@]2(C)[C@H]1C[C@H]1OC(c3ccccc3F)O[C@]12C(=O)SCC#N (stereo partly drawn) [Example 42, S-(Cyanomethyl)(4aR,4bS,5S,6aS,6bS,9aR,10aS,10bS)-8-(2-fluorophenyl)-5-hydroxy-4a,6a-dimethyl-2-oxo-2,4a,4b,5,6,6a,9a,10,10a,10b,11,12-dodecahydro-6bH-naphtho[2′,1′:4,5]indeno[1,2-d][1,3]dioxole-6b-carbothioate]
8 | 0.81 | C[C@]12C=CC(=O)C=C1CC[C@@H]1[C@@H]2[C@@H](O)C[C@@]2(C)[C@H]1C[C@H]1OC(c3ccccc3F)O[C@]12C(=O)SCF (stereo partly drawn) [Example 43, S-(Fluoromethyl)(4aR,4bS,5S,6aS,6bS,9aR,10aS,10bS)-8-(2-fluorophenyl)-5-hydroxy-4a,6a-dimethyl-2-oxo-2,4a,4b,5,6,6a,9a,10,10a,10,11,12-dodecahydro-6bH-naphtho[2′,1′:4,5]indeno[1,2-d][1,3]dioxole-6b-carbothioate]
9 | 0.62 | CSC(=O)[C@@]12OC(c3ccccc3F)O[C@@H]1C[C@H]1[C@@H]3CCC4=CC(=O)C=C[C@]4(C)[C@H]3[C@@H](O)C[C@@]12C (stereo partly drawn) [Example 44, S-Methyl (4aR,4bS,5S,6aS,6bS,9aR,10aS,10bS)-8-(2-fluorophenyl)-5-hydroxy-4a,6a-dimethyl-2-oxo-2,4a,4b,5,6,6a,9a,10,10a,10b,11,12-dodecahydro-6bH-naphtho[2′,1′:4,5]indeno[1,2-d][1,3]dioxole-6b-carbothioate]
